In assay [1] the test system is L6 rat skeletal cells. Briefly: MTT assay, viability of L6 cells under hypoxic conditions. The format is cell-based. Conditions: 80 μg/ml, 12 h pretreatment, 1 h hypoxia; vehicle 27% ± 1.3%; means ± SD. On the technique in general: Tetrazolium assays rely on reduction of a dye to a coloured formazan, in cell work by metabolically active cells.
Protocol: L6 cells were cultured in 96-well tissue culture plates (1×10^4 cell/well) with 10% FBS for 24 hours. Serum-free medium was then used for another 24 hours prior to treatment with RGC, Rhodiola crenulata extract, or Ginkgo biloba extract. Cell viability and proliferation were measured by the 3-(4,5-dimethylthiazol-2-yl)-2,5-diphenyltetrazolium bromide (MTT) and 5-bromo-2′-deoxyuridine (BrdU) (Roche Diagnostics, USA) incorporation assays, respectively.
The L6 cells were plated in 96-well plates (5000 cell/well) for 24 hours. Then the serum-free medium was used and cells incubated for another 12 hours. Sequentially, cells were pretreated with various concentrations (20 μg/ml, 40 μg/ml, 80 μg/ml) of RG, Rhodiola Crenulata, or Ginkgo biloba, respectively, or Vitamin C (80 μg/ml) for 12 hours, followed by exposure to an ischemic solution (EBSS) and placed in an anaerobic chamber (Diagnostic System) for 1 hour. The control cells were incubated without treatment for 1 hour. After 1 hour exposure to hypoxic and ischemic environments, 100 μl MTT (0.5 mg/ml in PBS) was added to each well and the cells were incubated at 37° C. for 4 h. The MTT solution was prepared by dissolving 250 mg of MTT in 50 ml PBS (0.01 mol/L, PH7.4) to prepare 0.5% MTT staining solution. The solution was then filtered through Millipore membrane and stored at 4° C. […]
Assay [2] concerns L6 rat skeletal cells. Nature of the assay: SOD antioxidant assay, SOD activity of L6 cells under hypoxic conditions. The format is cell-based. As to conditions: 80 μg/ml, hypoxic condition; vehicle 16.58% ± 0.31%; means ± SD.
Protocol: Cells were homogenized in ice-cold phosphate buffer (50 mmol/L, pH 7.4) to make 10% w/v homogenate with a motor-driven Potter-Elvejhem glass homogenizer at 0-4° C. The homogenate will be then centrifuged at 300 g for 10 min at 4° C. to remove intact cells and debris. The remaining supernatant was divided into 2 parts for different enzyme assays. For SOD assays, the supernatant will be centrifuged at 2300 g for a further 10 min at 4° C. After centrifugation, the pellets will be discarded and the supernatants were used for the assessment of enzyme activity. The procedure was carried out on ice or at 0-4° C. Reagents for the assay were obtained through a commercially available SOD Assay Kit.
The samples were mixed and placed in a water bath at 37° C. for 40 min. A chromogenic agent (200 μl) was then added, the samples mixed, then left at room temperature for 10 min before absorbance at 550 nm was detected. The Inhibition ration was then calculated using the formula: Inhibition ratio=(ODn−OD1)/OD1×100%. […] The protein concentration was measured using the BCA protein quantitative assay.
After 10 μl was selected for use for the SOD assays, SOD activity assays were performed for the samples of the various treatment groups (20 μg/ml, 40 μg/ml, or 80 μg/ml of RG, Rhodiola Crenulata, or Ginkgo biloba, respectively, and 80 μg/ml of Vitamin C) where the sample volumes were as shown in Table 10. […]

These results are taken from US8119170B2, “Herbal compositions and methods for enhancing vital energy and athletic performance” (priority 2008, dated 2012).

Molecules are shown by their SMILES.

Take `O=C1O[C@H]([C@@H](O)CO)C(O)=C1O` [Vitamin C]: the “Cell proliferation in hypoxic conditions (cell survival rate, MTT)” value in assay [1] is listed as 41% ± 3.2%. Also, the “SOD Enzymatic Activity” value in assay [2] is on record as 20.00% ± 0.08%.
